Converted amounts (≈) assume the structure as drawn.
What was measured:
[1] = cited from earlier work
[2] = test system: primary genital herpes; conditions: guinea pigs, single dose; cited from earlier work
[3] = test system: respiratory syncytial virus; conditions: in vitro, cells infected with respiratory syncytial virus; cited from earlier work
[4] = test system: rhinovirus 1A; conditions: in vitro, cells infected with rhinovirus 1A; cited from earlier work
[5] = cited from earlier work; remark: listed apart in the source
[6] = test system: a number of different tumor cell types; conditions: mice implanted with tumor cells; cited from earlier work
[7] = test system: Rift Valley Fever virus; conditions: monkeys; cited from earlier work
[8] = test system: Banzi virus; conditions: monkeys; cited from earlier work
[9] = test system: spleen, bone marrow, liver, peritoneal exudates and alveolar macrophages; conditions: in vitro; cited from earlier work
[10] = topical; cited from earlier work
[11] = test system: isolated human mononuclear cells; conditions: cited from earlier work
[12] = cited from earlier work; remark: listed apart in the source
[13] = test system: cutaneous metastatic melanoma; conditions: topical, under occlusion; cited from earlier work
[14] = test system: varicella zoster; conditions: in vitro, cells infected with varicella zoster; cited from earlier work
[15] = aqueous solubility; conditions: pH 7.4, aqueous buffer
[16] = test system: mouse spleen cell cultures; conditions: cited from earlier work
[17] = physchem; conditions: water

Structure (SMILES): CC(C)Cn1cnc2c(N)nc3ccccc3c21 [imiquimod, 1-(2-methylpropyl)-1H-imidazo[4,5-c]quinolin-4-amine]
- systemic exposure ([1]; dermal administration): minimal
- absorption ([1]; oral administration): rapidly absorbed
- treatment of primary genital herpes infections [2]: effectively treats
- plaque reduction [3]: 50%
- plaque reduction [4]: 50%
- systemic toxicity ([5]; oral administration): significant systemic toxicity
- skin irritation ([5]; topical administration of creams): significant skin irritation
- anti-tumor effect [6]: effective anti-tumor agent
- efficacy against Rift Valley Fever virus [7]: effective
- efficacy against Banzi virus [8]: effective
- time of cytokine induction after exposure [9]: 1 to 2 h
- time of peak cytokine induction [9]: 8 h
- effect on contact allergy to dinitrochlorobenzene [10]: enhanced contact allergy
- concentration of maximal interferon-alpha production [11]: 3 µM
- solubility in water and common organic solvents ([12]; free base form): almost insoluble
- solubility at physiologic pH ([12]; physiologic pH): 1-2 μg/ml
- treatment of cutaneous metastatic melanoma [13]: successfully treated
- plaque reduction [14]: 50%
- solubility [15]: 4 µM (≈ 0.961 µg/mL)
- concentration of maximum activity, induced proliferation [16]: 1 µg/mL

Structure (SMILES): CC(C)(C)CC(=O)OCC(=O)[C@@]12OC(C)(C)O[C@@H]1C[C@H]1[C@@H]3CCC4=CC(=O)C=C[C@]4(C)[C@@]3(F)[C@@H](O)C[C@@]12C [Triamcinolone hexacetonide]
- solubility [17]: 3.75 µM (≈ 2 µg/mL)

Source: patent publication US8211906B1, “Method of inhibiting growth of neoplastic cells and inhibiting infection by administering an immune enhancer drug” (priority 2003, dated 2012)
